This passage reports IC50 and inhibition results from patent US4777167A, “Pharmaceutically useful substituted thiacycloalkeno [3,2-b]pyridines, compositions and method of use” (Ortho Pharmaceutical Corporation, priority 1987, dated 1988).

One test deals with T1, calcium channels (Oryctolagus cuniculus, UniProt P15381).
T1 construct: from tissue; host or cells: heart of female New Zealand white rabbits, membrane fraction (42,000×g pellet)
Nature of the test: Inhibition of nitrendipine binding (3H-nitrendipine displacement, rabbit heart membranes). Also on record: species or system rabbit (New Zealand white). To be noted: Table II, 90 min, 4° C. Here is the method:
(1) Inhibition of nitrendipine binding to calcium channels.
The assay for inhibition of nitrendipine binding follows the following procedure:
Female, New Zealand white rabbits (1-2 kg) are sacrificed by cervical dislocation, and the heart is immediately removed, cleaned, and chopped into small pieces. The tissue is homogenized in 5× volume of 0.05M Hepes buffer, pH 7.4. The homogenate is centrifuged at 4000×g for 10 minutes; the supernatant is recentrifuged at 42,000×g for 90 minutes. The resulting membrane pellet is resuspended (0.7 ml/g weight) in 0.05M Hepes, pH 7.4 and stored at -70° C. until used. Each tube of the binding assay contains ^3 H- nitrendipine (0.05-0.50 nM), buffer, membranes (0.10 ml), and test compound in a total volume of 1.0 ml. After 90 minutes at 4° C., the bound nitrendipine is separated from the unbound by filtration on Whatman GF/C fibers. After rinsing, the filters are dried and counted in a liquid scintillation counter.
Non-specific binding of ^3 H-nitrendipine (that amount bound in the presence of excess unlabelled nitrendipine) is subtracted from the total bound to obtain specifically bound radiolabeled nitrendipine. The amount of specifically bound nitrendipine in the presence of a test compound is compared to that amount bound in the absence of a compound. A percent displacement (or inhibition) can then be obtained.

The subject of the next test is trachealis muscle. Nature of the test: Inhibition of calcium dependent smooth muscle contraction (KCl-challenged trachea). Format: cell-based, dog. To be noted: Canis lupus familiaris, Table II; for inhibition at 1 µM: concentration 1.0 μM; for inhibition at 0.1 µM: concentration 0.1 μM; for inhibition at 0.1 µM / inhibition at 2 µM / inhibition at 0.2 µM: read-out: Inhibition Trachea Muscle Contraction % Inhibition; for inhibition at 2 µM: concentration 2.0 μM; for inhibition at 0.2 µM: concentration 0.2 μM. On the procedure:
The test for inhibition of calcium dependent smooth muscle contraction is determined according to the following procedure:
Trachea from dogs sacrificed by excess KCl injection are stored overnight at 4° C. in oxygenated Krebs-Henseleit buffer. Tracheal rings, one cartilage segment wide (5-10 mm), are cut starting from the bronchial end. After cutting the cartilage, the trachealis muscle tissue is suspended in oxygenated Krebs-Henseleit buffer at 37° C. in a 25 ml tissue bath. After a 60 minutes equilibration period, the tissues are challenged with 10 μM carbachol. After 5 minutes the tissues are rinsed and allowed to rest 50 minutes. The tissues are then challenged with 50 mM KCl and, after 30 minutes, the contractions are quantitated. The tissues are then rinsed and reequilibrated for 50 minutes. Test compounds are then added for 10 minutes, and the tissue is rechallenged with 50 mMKcl. After 30 minutes, the contraction is recorded and used to determine the % inhibition of control.
The percent inhibition of smooth muscle contraction is calculated from response data before and after drug treatment. [formula] A rating is assigned to the compound depending upon the percent inhibition obtained.

In a further test the test system is Aorta Muscle. The experiment in a line: Inhibition of aorta muscle contraction. To be noted: Table II; for inhibition at 0.1 µM: concentration 0.1 μM. Format: cell-based.

T1 sequence (P15381 whole entry, other chains not shown): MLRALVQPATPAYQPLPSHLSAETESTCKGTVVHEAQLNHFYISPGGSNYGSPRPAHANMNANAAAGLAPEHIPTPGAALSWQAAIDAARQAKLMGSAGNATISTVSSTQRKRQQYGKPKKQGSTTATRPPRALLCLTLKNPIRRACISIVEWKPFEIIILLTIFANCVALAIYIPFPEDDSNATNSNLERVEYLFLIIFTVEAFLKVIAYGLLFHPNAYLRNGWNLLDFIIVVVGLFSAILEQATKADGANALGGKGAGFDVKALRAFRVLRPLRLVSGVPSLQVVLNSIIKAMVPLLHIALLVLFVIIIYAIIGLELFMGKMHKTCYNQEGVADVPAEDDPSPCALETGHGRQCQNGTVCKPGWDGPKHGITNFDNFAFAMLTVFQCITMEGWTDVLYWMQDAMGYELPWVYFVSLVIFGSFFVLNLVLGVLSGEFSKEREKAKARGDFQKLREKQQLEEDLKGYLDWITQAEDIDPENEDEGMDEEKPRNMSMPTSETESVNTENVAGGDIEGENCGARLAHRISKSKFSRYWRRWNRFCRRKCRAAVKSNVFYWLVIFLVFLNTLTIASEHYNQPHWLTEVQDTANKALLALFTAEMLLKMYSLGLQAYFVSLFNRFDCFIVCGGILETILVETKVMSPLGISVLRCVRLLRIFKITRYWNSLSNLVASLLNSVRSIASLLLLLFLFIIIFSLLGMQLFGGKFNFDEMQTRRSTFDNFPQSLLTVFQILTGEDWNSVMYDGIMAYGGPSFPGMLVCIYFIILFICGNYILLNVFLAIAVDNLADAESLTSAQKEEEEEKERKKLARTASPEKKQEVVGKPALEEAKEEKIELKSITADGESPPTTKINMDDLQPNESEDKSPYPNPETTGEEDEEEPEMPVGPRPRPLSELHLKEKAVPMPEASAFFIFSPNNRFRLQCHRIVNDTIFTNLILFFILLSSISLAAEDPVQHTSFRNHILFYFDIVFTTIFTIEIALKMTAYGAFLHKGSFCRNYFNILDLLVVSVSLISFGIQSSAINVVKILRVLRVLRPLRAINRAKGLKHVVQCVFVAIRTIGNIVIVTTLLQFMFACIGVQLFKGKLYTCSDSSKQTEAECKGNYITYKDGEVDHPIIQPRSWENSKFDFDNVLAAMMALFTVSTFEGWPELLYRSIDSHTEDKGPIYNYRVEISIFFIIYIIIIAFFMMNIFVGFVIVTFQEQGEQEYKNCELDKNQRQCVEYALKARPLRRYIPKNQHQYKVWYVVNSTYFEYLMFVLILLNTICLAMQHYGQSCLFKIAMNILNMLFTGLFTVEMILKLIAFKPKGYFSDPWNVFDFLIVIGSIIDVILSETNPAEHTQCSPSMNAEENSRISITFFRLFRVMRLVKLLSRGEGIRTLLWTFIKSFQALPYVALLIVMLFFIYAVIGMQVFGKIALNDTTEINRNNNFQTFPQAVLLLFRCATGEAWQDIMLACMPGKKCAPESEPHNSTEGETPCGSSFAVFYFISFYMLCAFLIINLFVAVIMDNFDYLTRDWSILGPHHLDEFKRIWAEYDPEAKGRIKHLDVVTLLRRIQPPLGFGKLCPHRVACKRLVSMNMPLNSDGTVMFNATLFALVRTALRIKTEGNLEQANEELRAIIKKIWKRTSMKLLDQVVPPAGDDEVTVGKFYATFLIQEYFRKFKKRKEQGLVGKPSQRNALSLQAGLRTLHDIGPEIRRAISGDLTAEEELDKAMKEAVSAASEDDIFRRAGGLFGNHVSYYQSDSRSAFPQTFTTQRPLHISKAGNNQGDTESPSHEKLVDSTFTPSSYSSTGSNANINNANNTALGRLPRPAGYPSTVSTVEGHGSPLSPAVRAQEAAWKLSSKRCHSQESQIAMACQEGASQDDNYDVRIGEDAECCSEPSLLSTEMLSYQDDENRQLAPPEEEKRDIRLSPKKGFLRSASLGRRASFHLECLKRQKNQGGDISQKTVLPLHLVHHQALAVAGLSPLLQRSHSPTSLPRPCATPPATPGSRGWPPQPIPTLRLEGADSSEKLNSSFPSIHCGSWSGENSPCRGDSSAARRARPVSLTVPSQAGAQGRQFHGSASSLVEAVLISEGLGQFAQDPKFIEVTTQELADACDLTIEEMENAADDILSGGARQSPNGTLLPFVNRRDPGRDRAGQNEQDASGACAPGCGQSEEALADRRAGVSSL
T1 sequence (P13806 27-960 partner limits assumed, other chains not shown): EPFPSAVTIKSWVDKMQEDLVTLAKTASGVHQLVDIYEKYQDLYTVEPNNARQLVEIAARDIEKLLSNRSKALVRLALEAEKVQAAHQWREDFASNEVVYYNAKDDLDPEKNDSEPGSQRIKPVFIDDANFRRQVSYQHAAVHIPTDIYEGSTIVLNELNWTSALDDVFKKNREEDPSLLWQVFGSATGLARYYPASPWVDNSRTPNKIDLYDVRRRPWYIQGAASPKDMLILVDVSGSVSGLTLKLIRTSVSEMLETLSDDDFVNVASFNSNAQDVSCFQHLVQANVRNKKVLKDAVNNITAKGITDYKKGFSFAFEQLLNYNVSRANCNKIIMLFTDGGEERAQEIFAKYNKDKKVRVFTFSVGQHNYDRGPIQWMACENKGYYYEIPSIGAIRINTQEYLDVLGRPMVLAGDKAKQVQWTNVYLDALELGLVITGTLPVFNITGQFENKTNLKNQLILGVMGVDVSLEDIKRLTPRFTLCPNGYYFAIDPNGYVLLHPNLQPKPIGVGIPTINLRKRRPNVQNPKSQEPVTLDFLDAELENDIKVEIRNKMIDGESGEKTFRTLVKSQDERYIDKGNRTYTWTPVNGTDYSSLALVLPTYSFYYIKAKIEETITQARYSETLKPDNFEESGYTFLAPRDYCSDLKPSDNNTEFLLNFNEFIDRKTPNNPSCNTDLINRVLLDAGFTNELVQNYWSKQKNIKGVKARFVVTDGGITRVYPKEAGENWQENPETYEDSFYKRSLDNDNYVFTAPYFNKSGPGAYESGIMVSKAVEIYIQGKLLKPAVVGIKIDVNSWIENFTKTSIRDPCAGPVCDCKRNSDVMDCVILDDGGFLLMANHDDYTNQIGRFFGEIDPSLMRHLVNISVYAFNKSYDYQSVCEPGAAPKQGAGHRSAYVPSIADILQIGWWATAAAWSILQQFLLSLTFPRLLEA
T1 sequence (P13806 961-1106 partner limits assumed, other chains not shown): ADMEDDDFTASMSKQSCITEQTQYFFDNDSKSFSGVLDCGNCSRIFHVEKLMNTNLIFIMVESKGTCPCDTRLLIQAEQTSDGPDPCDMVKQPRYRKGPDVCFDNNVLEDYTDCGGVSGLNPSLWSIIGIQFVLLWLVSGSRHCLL

Consider `CC1=C(C(=O)OCCNc2ccccc2)C(c2cccc([N+](=O)[O-])c2)C2=C(CCCCS2(=O)=O)N1` (centres unmarked) [4 3-NO2C6 H4 CH2 CH2 NHC6 H5], for which the IC50 (in general, the point on the concentration scale where inhibition reaches its midpoint) on calcium channels came to 16 nM. Also, the inhibition (as a rule, the change of the read-out against control, counted positive when it falls) at 1 µM in the test with trachealis muscle stood at 72%. In the test with Aorta Muscle, the inhibition at 0.1 µM came out at 48%.

With `CC1=C(C(=O)OCCN(C)Cc2ccccc2)C(c2c(F)cccc2Cl)C2=C(CCCCS2(=O)=O)N1` (centres unmarked) [4 2-Cl,6-FC6 H3, N-Benzyl-N-methylaminoethyl 9-(2-chloro-6-fluorophenyl)-2,4,5,6,9-hexahydro-7-methyl-1,1-dioxothiacyclohepteno[3,2-b]pyridine-8-carboxylate], on calcium channels, the concentration for half-maximal inhibition (IC50) turned out to be 29 nM. The inhibition at 0.1 µM with trachealis muscle came to 50%; in the test with Aorta Muscle it was 66%.

For `CC1=C(C(=O)OCCN(C)Cc2ccccc2)C(c2ccccc2Cl)C2=C(CCCCS2(=O)=O)N1` (centres unmarked) [4 2-ClC6 H4, N-Benzyl-N-methylaminoethyl 9-(2-chlorophenyl)-2,4,5,6,9-hexahydro-7-methyl-1,1-dioxothiacyclohepteno[3,2-b]pyridine-8-carboxylate], at calcium channels, the half-inhibitory concentration (IC50) worked out at 220 nM. For the same compound, the inhibition at 0.1 µM with trachealis muscle was 57%; in the test on Aorta Muscle it was 54%.

With `CC1=C(C(=O)OC2CCN(Cc3ccccc3)CC2)C(c2cccc([N+](=O)[O-])c2)C2=C(CCCCS2(=O)=O)N1` (centres unmarked) [4 3-NO2C6 H4 drawing 7], at calcium channels, the concentration for half-maximal inhibition (IC50) was 860 nM. Moreover, the inhibition at 2 µM with trachealis muscle came out at 17%. In the test with Aorta Muscle, this compound yielded an inhibition at 0.1 µM of 12%.

For the compound `CC1=C(C(=O)OCCN(C)Cc2ccccc2)C(c2ccccc2OC(F)F)C2=C(CCCCCS2(=O)=O)N1` (centres unmarked) [5 2-OCHF2C6 H4, N-Benzyl-N-methylaminoethyl 10-(2-difluoromethoxyphenyl)-3,4,5,6,7,10-hexahydro-8-methyl-1,1-dioxothiacycloocteno[3,2-b]pyridine-9-carboxylate], the concentration for half-maximal inhibition (IC50) on calcium channels amounted to 95 nM. The inhibition at 0.1 µM with trachealis muscle is 76%. The compound further yielded an inhibition at 0.01 µM in the test on Aorta Muscle (concentration 0.01 μM) of 80%.

Consider `CC1=C(C(=O)OCCN2CCc3ccccc3C2)C(c2cccc([N+](=O)[O-])c2)C2=C(CCCCS2(=O)=O)N1` (centres unmarked) [4 3-NO2C6 H4 drawing 11], for which, at calcium channels, the half-maximal inhibitory concentration (IC50) worked out at 200 nM. Besides, in the test with trachealis muscle, the inhibition at 0.2 µM was 45%. Besides, the inhibition at 0.1 µM in the test on Aorta Muscle is 53%.

Take `CC1=C(C(=O)OCCN(C)Cc2ccccc2)C(c2cc([N+](=O)[O-])ccc2Cl)C2=C(CCCCS2(=O)=O)N1` (centres unmarked) [4 2-Cl,5-NO2C6 H3]: the IC50 on calcium channels came out at 260 nM. For the same compound, the results for the inhibition at 0.1 µM in the test with trachealis muscle and in the test on Aorta Muscle were 38% and 63%, respectively.

`CC1=C(C(=O)OCCN(C)Cc2ccccc2)C(c2ccccc2F)C2=C(CCCCS2(=O)=O)N1` (centres unmarked) [4 2-FC6 H4]: on calcium channels, the 50% inhibitory concentration (IC50) worked out at 440 nM. The inhibition at 2 µM in the test on trachealis muscle was 84%. In the test on Aorta Muscle, this compound gave an inhibition at 0.1 µM of 32%.

As for `CC1=C(C(=O)OCCN(C)Cc2ccccc2)C(c2c(Cl)cccc2Cl)C2=C(CCCCS2(=O)=O)N1` (centres unmarked) [4 2,6-Cl2C6 H3], at calcium channels, the IC50 came out at 86 nM. In addition, the results for the inhibition at 0.1 µM with trachealis muscle and with Aorta Muscle were 55% and 50%, respectively.

Consider `CC1=C(C(=O)OCCN(C)Cc2ccccc2)C(c2cccc(Cl)c2Cl)C2=C(CCCCCS2(=O)=O)N1` (centres unmarked) [5 2,3-Cl2C6 H3], for which the IC50 at calcium channels came to 75 nM. Moreover, the inhibition at 0.1 µM in the test with trachealis muscle was 26%; in the test on Aorta Muscle, 58%.

Regarding `CC1=C(C(=O)OCCN(C)Cc2ccccc2)C(c2cccc([N+](=O)[O-])c2)C2=C(CCCCCS2(=O)=O)N1` (centres unmarked) [5 3-NO2C6 H4, N-Benzyl-N-methylaminoethyl 3,4,5,6,7,10-hexahydro-8-methyl-10-(3-nitrophenyl)-1,1-dioxo-2H-thiacycloocteno[3,2-b]pyridine-9-carboxylate], the IC50 on calcium channels was 45 nM. The figures for the inhibition at 0.1 µM in the test on trachealis muscle and in the test with Aorta Muscle were 43% and 67%, respectively.

`CC1=C(C(=O)OCCN(C)c2ccccc2)C(c2ccccc2[N+](=O)[O-])C2=C(CCCCS2(=O)=O)N1` (centres unmarked) [4 2-NO2C6 H4 CH2 CH2 NCH3 C6 H5]: the half-maximal inhibitory concentration (IC50) at calcium channels worked out at 86 nM. The figures for the inhibition at 0.1 µM with trachealis muscle and in the test on Aorta Muscle were 57% and 43%, respectively.

`CC1=C(C(=O)OCCN(C)Cc2ccccc2)C(c2cccc(Cl)c2Cl)C2=C(CCCCS2(=O)=O)N1` (centres unmarked) [4 2,3-Cl2C6 H3, N-Benzyl-N-methylaminoethyl 9-(2,3-dichlorophenyl)-2,4,5,6,9-hexahydro-7-methyl-1,1-dioxothiacyclohepteno[3,2-b]pyridine-8-carboxylate]: on calcium channels, the IC50 worked out at 100 nM. Moreover, the values for the inhibition at 0.1 µM with trachealis muscle and in the test on Aorta Muscle were 62% and 83%, respectively.

In the case of `CC1=C(C(=O)OCCN(C)c2ccccc2)C(c2ccccc2C(F)(F)F)C2=C(CCCCS2(=O)=O)N1` (centres unmarked) [4 2-CF3C6 H4 CH2 CH2 NCH3 C6 H5], the half-inhibitory concentration (IC50) at calcium channels was determined as 46 nM. For the same compound, the results for the inhibition at 0.1 µM in the test with trachealis muscle and in the test with Aorta Muscle were 59% and 57%, respectively.

For the compound `CC1=C(C(=O)OCCN(C)Cc2ccccc2)C(c2ccccc2[N+](=O)[O-])C2=C(CCCCS2(=O)=O)N1` (centres unmarked) [4 2-NO2C6 H4], the IC50 on calcium channels came out at 440 nM. The inhibition at 0.1 µM in the test with trachealis muscle came to 49%; in the test on Aorta Muscle, 44%.

In the case of `CC1=C(C(=O)OCCN(C)Cc2ccccc2)C(c2cccc(C(F)(F)F)c2Cl)C2=C(CCCCS2(=O)=O)N1` (centres unmarked) [4 2-Cl,3-CF3C6 H3], the IC50 on calcium channels was 390 nM. The inhibition at 0.2 µM in the test with trachealis muscle came out at 50%. In the test on Aorta Muscle, this compound had an inhibition at 0.1 µM of 66%.

In the case of `CC1=C(C(=O)OCCCN(C)Cc2ccccc2)C(c2cccc([N+](=O)[O-])c2)C2=C(CCCCS2(=O)=O)N1` (centres unmarked) [4 3-NO2 C6 H4 CH2 CH2 CH2 NCH3 CH2 C6 H5], the IC50 on calcium channels came out at 290 nM. Moreover, in the test on trachealis muscle, the inhibition at 2 µM turned out to be 50%. Moreover, the inhibition at 0.1 µM with Aorta Muscle amounted to 25%.

Take `CC1=C(C(=O)OCCCN(C)Cc2ccccc2)C(c2ccccc2[N+](=O)[O-])C2=C(CCCCS2(=O)=O)N1` (centres unmarked) [4 2-NO2C6 H4 CH2 CH2 CH2 NCH3 CH2 C6 H5]: on calcium channels, the half-maximal inhibitory concentration (IC50) worked out at 1000 nM. Moreover, the inhibition at 1 µM in the test with trachealis muscle came to 41%. Further, in the test on Aorta Muscle, the inhibition at 0.1 µM came to 7.7%.

`CC1=C(C(=O)OCCN(C)CCc2ccccc2)C(c2cccc(Cl)c2Cl)C2=C(CCCCCS2(=O)=O)N1` (centres unmarked): the concentration for half-maximal inhibition (IC50) on calcium channels was determined as 149 nM. Besides, in the test on trachealis muscle, the inhibition at 1 µM was determined as 57%. In addition, in the test on Aorta Muscle, 0.1 µM produced 67% inhibition.

With `CC1=C(C(=O)OCCN(C)Cc2ccccc2)C(c2cccc(C(F)(F)F)c2Cl)C2=C(CCCCCS2(=O)=O)N1` (centres unmarked) [5 2-Cl,3-CF3C6 H3, N-Benzyl-N-methylaminoethyl 10-(2-chloro-3-trifluoromethylphenyl)-3,4,5,6,7,10-hexahydro-8-methyl-1,1-dioxothiacycloocteno[3,2-b]pyridine-9-carboxylate], the IC50 at calcium channels is 200 nM. Also, the inhibition at 0.1 µM with trachealis muscle was 57%; in the test on Aorta Muscle, 78%.

Turning to `CC1=C(C(=O)OCCN(C)c2ccccc2)C(c2cccc([N+](=O)[O-])c2)C2=C(CCCCS2(=O)=O)N1` (centres unmarked) [4 3-NO2C6 H4 CH2 CH2 NCH3 C6 H5], on calcium channels, the IC50 amounted to 45 nM. Further, in the test on trachealis muscle, the inhibition at 1 µM amounted to 65%. Also, in the test on Aorta Muscle, the inhibition at 0.1 µM is 53%.

Regarding `CC1=C(C(=O)OCCN(C)Cc2ccccc2)C(c2ccccc2[N+](=O)[O-])C2=C(CCCCCS2(=O)=O)N1` (centres unmarked) [5 2-NO2C 6 H4 CH2 CH2 NCH3 CH2 C6 H5], the figures for the inhibition at 0.1 µM in the test with trachealis muscle and with Aorta Muscle were 69% and 73%, respectively.

In the case of `CC1=C(C(=O)OCCO)C(c2cccc([N+](=O)[O-])c2)C2=C(CCCCS2(=O)=O)N1` (centres unmarked) [4 3-NO2C6 H4 CH2 CH2 OH], on calcium channels, the IC50 came to 2400 nM. Besides, the inhibition at 2 µM with trachealis muscle was 23%. This compound also showed an inhibition at 3 µM in the test on Aorta Muscle (concentration 3.0 μM) of 41%.

As to `CC1=C(C(=O)OCCN(C)Cc2ccccc2)C(c2cc(F)ccc2F)C2=C(CCCCS2(=O)=O)N1` (centres unmarked) [4 2,5-F2C6 H3], the half-maximal inhibitory concentration (IC50) at calcium channels turned out to be 120 nM. The inhibition at 0.1 µM in the test on trachealis muscle is 43%; in the test on Aorta Muscle, 47%.

For the compound `CC1=C(C(=O)OCCN(C)Cc2ccccc2)C(c2cccc(C(F)(F)F)c2Cl)C2=C(CCCCCCS2(=O)=O)N1` (centres unmarked) [6 2-Cl,3-CF3C6 H3, N-Benzyl-N-methylaminoethyl 19-(2-chloro-3-trifluoromethylphenyl)-2,3,4,5,6,7,8,11-octahydro-9-methyl-1,1-dioxothiacyclononeno[3,2-b]pyridine-10-carboxylate], the IC50 at calcium channels was 470 nM. Moreover, in the test with trachealis muscle, the inhibition at 2 µM turned out to be 46%. In the test with Aorta Muscle, this compound had an inhibition at 0.1 µM of 30%.
